Experimental data taken from patent US20170319562A1, “Compositions and Methods for Extended Therapy with Aminopyridines” (Acorda Therapeutics, Inc., priority 2009, published 2017).

Tests used:
[1] = system: patients with multiple sclerosis; experiment: MS-F202EXT open-label extension study; type: in vivo, human; conditions: for patients classified as Extension Timed Walk Responders: cut-off Jul. 31, 2008
Description: (§1) Data were presented by study pair (parent and extension).
In the MS-F202EXT study, which started recruiting patients several months after the completion of the parent study, patients were required to undergo a screening visit prior to dispensing of open-label 4-aminopyridine-SR. The study began with the potential to titrate the dose upward to a maximum of 20 mg b.i.d. with titration visits at weekly intervals. A number of protocol amendments decreased the maximum dose to 15 and then to 10 mg b.i.d. and changed the planned visit intervals, but in the current amended protocol, both the dose (10 mg b.i.d.) and the interval between visits (26 weeks) has been made consistent with MS-F203EXT.
(§2) This Example considers efficacy data collected from the three ongoing, open label extension studies (MS-F202EXT, MS-F203EXT, MS-F204EXT). The primary focus was the Timed 25-Foot Walk, assessed in a manner consistent with its evaluation in the parent double-blind studies. This included the determination of response to treatment using a criterion equivalent to the Timed Walk Response criterion used in the parent studies. […] The clinical meaningfulness of this criterion was evaluated in terms of the Subject and Clinician Global Impression scores recorded during the extension studies.
(§3) In the extension studies, a “Timed Walk Extension Responder” was defined as a patient who achieved a faster walking speed on the T25FW for the majority of on-drug treatment visits during the first year of the study (Visits 1-4 for MS-F203EXT and MS-F204EXT) than the maximum walking speed previously measured for the patient during any off-drug visits in either the parent study or in the extension study.

[2] = system: patients with multiple sclerosis; experiment: MS-F203EXT open-label extension study; type: in vivo, human; conditions: for patients classified as Extension Timed Walk Responders: cut-off Jul. 31, 2008
Description: as §1
In the MS-F203EXT study, which allowed patients to enroll directly from the parent study MS-F203, open-label 4-aminopyridine-SR 10 mg b.i.d. was dispensed at visit 0 (a separate screening visit was only required if the screening visit could not be combined with the Final visit for MS-F203); visit 1 was scheduled to occur two weeks after visit 0, visit 2 at 12 weeks after visit 1, visit 3 at 12 weeks after visit 2. The planned interval between subsequent visits was 26 weeks. Therefore, at visit 4, a patient should have been on 4-aminopyridine-SR treatment for approximately one year.
as §2, §3

[3] = system: patients with multiple sclerosis; experiment: MS-F204EXT open-label extension study; type: in vivo, human; conditions: cut-off Jul. 31, 2008
Description: as §1
In the MS-F204EXT study, which allowed patients to enroll directly from the parent study MS-F204, open label 4-aminopyridine-SR 10 mg b.i.d. was dispensed at visit 0 (a separate screening visit was only required if the screening visit could not be combined with the Final visit for MS-F204); visit 1 was scheduled to occur two weeks after screening visit (or visit 0), visit 2 at 12 weeks after visit 1, visit 3 at 12 weeks after visit 2. The planned interval between subsequent visits was 26 weeks. Therefore, at visit 4, a patient should have been on 4-aminopyridine-SR treatment for approximately one year.
as §2, §3

[4] = Single 20 mg intravenous dose, volume of distribution; type: in vivo; conditions: plasma
Excerpt: Measurable levels are present in the saliva.

[5] = system: chronically injured spinal cord of guinea pigs; conditions: cited from earlier work
[6] = Pharmacokinetics after i.v. and p.o. 4-aminopyridine (2 mg/kg) in rats; conditions: single p.o. 2 mg/kg
Description: Distribution: The volume of distribution at steady state (Vdss) in rats has been reported to approximate total body volume (not adjusted for bioavailability).

[7] = double-blind Non-Responders, year 1
[8] = double-blind Non-Responders, year 2
[9] = double-blind Responders, year 1
[10] = double-blind Responders, year 2
[11] = parent-study treated Timed Walk Non-Responders
[12] = parent-study treated Timed Walk Responders
[13] = placebo treated in parent study, year 1
[14] = placebo treated in parent study, year 2
[15] = placebo-treated in parent study

In the case of `Nc1ccncc1` [4-aminopyridine], the “patients classified as Extension Timed Walk Responders” value (“patients classified” for short) ([1]; all patients) is reported as 15.7%, the “Extension Timed Walk Response rate within year” value [1, 7] is reported as 11.1% and the “Extension Timed Walk Response rate within year” value [1, 8] is reported as 5.2%. For the same compound, the “Extension Timed Walk Response rate within year” value ([1]; double-blind Non-Responders, year 3) was 6.1%, the “Extension Timed Walk Response rate within year” value [1, 9] was 25.6% and the “Extension Timed Walk Response rate within year” value [1, 10] was 23.1%. For the same compound, the “Extension Timed Walk Response rate within year” value ([1]; double-blind Responders, year 3) was 22.2%, the “patients classified” value [1, 11] was 9.5% and the “patients classified” value [1, 12] was 25.6%. For the same compound, the “Extension Timed Walk Response rate within year” value [1, 13] was 17.9%, the “Extension Timed Walk Response rate within year” value [1, 14] was 4.6% and the “Extension Timed Walk Response rate within year” value ([1]; placebo treated in parent study, year 3) was 5.3%. The “patients classified” value [1, 15] was 14.3%, the “decline in walking speed from the original double-blind baseline” value ([2]; Extension Timed Walk Non-Responders, end of the second year) was “approximately 8%” and the “improvement in walking speed over the original baseline” value ([2]; Extension Timed Walk Responders, Visit 6) was “more than 20%”. For the same compound, the “mean walking speed faster than double-blind baseline at each extension visit” value ([2]; Extension Timed Walk Responders, first year) was “more than 30%”, the “patients classified” value ([2]; all patients) was 24.9% and the “Extension Timed Walk Response rate within year” value [2, 7] was 19.7%. For the same compound, the “Extension Timed Walk Response rate within year” value [2, 8] was 17.5%, the “Extension Timed Walk Response rate within year” value [2, 9] was 42.9% and the “Extension Timed Walk Response rate within year” value [2, 10] was 36.1%. The “patients classified” value [2, 11] was 19.7%, the “patients classified” value [2, 12] was 41.4% and the “Extension Timed Walk Response rate within year” value [2, 13] was 16.2%. For the same compound, the “Extension Timed Walk Response rate within year” value [2, 14] was 20.8%, the “patients classified” value [2, 15] was 17.7% and the “patients classified” value ([3]; all patients) was 49.3%. For the same compound, the “patients classified” value [3, 11] was 30.0%, the “patients classified” value [3, 12] was 71.4% and the “patients classified” value [3, 15] was 50.0%. For the same compound, the Vd [4] was 2.6 L/kg, the most effective concentration [5] was “about 10 μM” and the “Vdss lower in females than in males” value [6] was 13%.
